From patent US20220062247A1, “USE OF A PAR-1 ANTAGONIST FOR THE TREATMENT OF A CHRONIC INFLAMMATORY INTESTINAL DISEASE” (CVASTHERA, priority 2018, published 2022)

Columns and labels:
[1] = tested on: induced colitis; settings: induced colitis model in mice, by reducing the inflammation phenomenon; cited from earlier work
[2] = tested on: nociceptive response induced by TNBS; assay: Nociceptive response (allodynia) by Von Frey filaments technique in TNBS colitis rats; type: in vivo, rat; settings: 2.5 mg/kg/day, 7 days after colitis induction
Method: (§1) Different parameters are measured: the weight of the rats, the presence of blood in the faeces and the diarrhoeas assessed by the disease activity index (DAI score), the intensity of pain (assessed by Von Frey filaments technique measured on days 3 and 7).
The intensity of the pain is measured by the Von Frey filaments technique on days […], according to the protocol described in the publication of Auge et al., 2013, Eur. J. Pharmacol. 707: 32-40.
The effect on the nociceptive response, measured by Von Frey filaments technique according to the mass of Von Frey filaments, is shown in FIG. 10 for prednisolone and in FIG. 11 for vorapaxar.

[3] = tested on: human colon epithelial cells Caco2; assay: Epithelial cells repair: cicatrisation of a lesion on a Caco2 monolayer; type: cell-based
Method: A lesion is practiced using a sterilised forceps on human colon epithelial cells Caco2 in monolayer and at a confluence. Afterwards, the cells are rinsed twice with sterilised […] and then placed in an adequate culture medium. In this medium, vorapaxar at different concentrations (10 nM, 100 nM, 1 μM, 10 μM) or the vehicle (control) are added in independent culture dishes. The cicatrisation of the lesion is supervised and analysed using a confocal microscope for 28 h. The percentage of the lesioned surface of the lesion is determined for each tested condition, 4 h, 22 h and 28 h after the lesion. The obtained results are shown in FIG. 12, respectively in a/, b/ and c/.

[4] = tested on: inflammatory bowel disease induced by 2,4,6-trinitrobenzenesulfonic acid (TNBS); assay: Colitis induced by intra-colonical TNBS in rats (body weight, DAI score, colon wall thickness, macroscopic damage score, MPO); type: in vivo, male laboratory rat of the Wistar strain
From the text: The purpose of this study is to assess the effectiveness of two PAR-1 antagonists, vorapaxar and 3-2-(chloro-phenyl)-1-[4-(4-fluoro-benzyl)-piperazine-1-yl]propenone (hereinafter, referred to as CSI) in a model of an inflammatory bowel disease induced by 2,4,6-trinitrobenzenesulfonic acid (TNBS) in a male laboratory rat of the Wistar strain. This model is described in the publication of Whittle et al., 2003, in Methods Mol. Biol., 225, 209-222.
In this induced colitis model, the inflammatory reaction is measured every day and is well established 7 days after intra-colonical administration of TNBS.
as §1
The rats are sacrificed 7 days after the beginning of the treatment and the macroscopic damages, the oedema and a marker of the inflammation, myeloperoxidase (MPO), are quantified.
The experiments with the PAR-1 antagonists are carried out in two studies, relating to vorapaxar and CSI, respectively.
The colitis is induced by intra-colonical administration of 2,4,6-trinitrobenzenesulfonic acid (TNBS) (30 mg of TNBS in 0.25 ml of a 50% ethanol/NaCl solution) via a catheter (polyethylene (PE)-60) inserted 8 cm proximally from the anus.
Four groups of 10 rats receive an intra-colonical administration of TNBS, as well as a per os treatment of vorapaxar at the dose of 2.5 mg/kg/day or of CSI at doses of 10 and 40 mg/kg/day or of prednisolone (a compound proposed by the prior art for the treatment of IBDs) at the dose of 3 mg/kg/day. The per os treatments start 1 h before the intra-colonical administration of TNBS.
As a negative comparative example, 1 group of 10 rats receives an intra-colonical administration of TNBS and of the vorapaxar vehicle (phosphate buffered saline—PBS) or of the CSI vehicle (carboxymethyl cellulose—CMC at 1%) per os daily.
Moreover, 1 group of 6 control rats receives an intra-colonical administration of NaCl instead of TNBS.
The DAI score is determined as follows. The development of the disease is estimated on a daily basis. The consistence of the excrements, as well as the presence of blood in the faeces assessed with the Hemoccult® paper test, are respectively quantified by the seriousness scales of Table 3 hereinbelow. The obtained values are added together to obtain the DAI score.
The macroscopic damage score is assessed according to the protocol described in the publication of Comera et al., 1999, Dig. Dis. Sci. 44: 1448-1457, as follows. On day 7 after induction of the colitis, the rats are sacrificed by carbon dioxide CO2 inhalation, the colon (from the anus to the Caecum) is removed and the macroscopic damages are assessed according to the parameters observed and presented in Table 4 hereinbelow, to determine the macroscopic damage score.

SMILES | survival rate of animals [1] | allodynia-type response (Von Frey) [2] | cicatrisation of the lesion (percentage of the lesioned surface) ([3]; Caco2, 4 h after the lesion, 100 nM, 1 μM and 10 μM) | cicatrisation of the lesion (percentage of the lesioned surface) ([3]; Caco2, 22 h after the lesion, 10 nM to 10 μM) | cicatrisation of the lesion (percentage of the lesioned surface) ([3]; Caco2, 28 h after the lesion, from 100 nm to 10 μM) | disease activity index (DAI) ([4]; 2.5 mg/kg daily, 7th day) | apparition of oedema (thickness of the wall of the colon) ([4]; 2.5 mg/kg daily, 7th day, vs vehicle group) | disease activity index (DAI) ([4]; 2.5 mg/kg, as of the 1st day, vs vehicle group) | weight loss (body weight) ([4]; 2.5 mg/kg/day per os, as of the 2nd day) | macroscopic damage score ([4]; 2.5 mg/kg/day, day 7, vs vehicle group)
COc1ccc(C[C@H](NC(=O)Nc2ccc3c(CN4CCCC4)cn(Cc4c(Cl)cccc4Cl)c3c2)C(=O)N[C@@H](CCCNC(=N)N)C(=O)NCc2ccccc2)cc1 [L-arininamide-4-methoxy-N-[[[1-[92,6-dichlorophenyl-methyl]-3-(1-pyrrolidinylmethyl)-1H-indol-6-yl]amino]carbonyl]-1-phenylalanyl-N-(phenylmethyl)-(5)] | improving the survival rate |  |  |  |  |  |  |  |  | 
CCOC(=O)N[C@@H]1CC[C@@H]2[C@@H](C1)C[C@H]1C(=O)O[C@H](C)[C@H]1[C@H]2/C=C/c1ccc(-c2cccc(F)c2)cn1 [vorapaxar, ethyl N-[(1R,3aR,4aR,6R,8aR,9S,9aS)-9-[(E)-2-[5-(3-fluorophenyl)pyridin-2-yl]ethenyl]-1-methyl-3-oxo-3a,4,4a,5,6,7,8,8a,9,9a-decahydro-1H-benzo[f][2]benzofuran-6-yl]carbamate] |  | significantly inhibits | highly enhanced | amplifies the cicatrisation surface in a concentration-dependent way | complete cicatrisation | significantly reduces | significantly reduces | significantly reduced | significantly reduces | significantly reduces
